Source: patent US8387699B2, “Green coal bed methane fracturing fluid compositions, methods of preparation and methods of use” (Calfrac Well Services Ltd., priority 2008, dated 2013)

Test system: Vibrio fischeri NRRL-B-11177
Assay: Microtox™ toxicity test (light emission of bioluminescent bacterium)
Type: cell-based
Conditions: constituent at the loading given; for EC50 Result (%): normally 50% light reduction over 15 minute at 15°C
Experimental: Under the Microtox™ protocols, the viability of known bacterial cultures is measured within a sample to produce a numeric result as well as a “pass/fail” indication.
The test is performed by rehydrating freeze dried cultures of the organism, supplied as the Microtox™ reagent and determining the initial light output of homogenized bacterial suspensions. Aliquots of osmotically adjusted sample and sample dilutions are added to the bacterial suspension, and light measurements are made at specific intervals (generally at 5 or 15 minutes) after exposure to test samples. The diluent control (blank) is used to correct time-dependant change in light output.
The Microtox™ test endpoint is measured as the effective or inhibitory concentration of a test sample that reduces light emission by a specific amount under defined conditions of time and temperature. Normally, this is expressed as an ECSO(15) or ICSO(15) which is the effective concentration or inhibitory concentration of a sample that reduces light emission of the test organism by 50% over a 15 minute test period at 15°C.
The EC50 or IC50 is calculated by log linear plotting of Concentration (C) vs percent Light Decrease (percent A), or more precisely by plotting Gamma Q (which is the corrected ratio of the amount of light lost to the amount of light remaining) versus Concentration on a log-log graph. Either a hand calculator or computer program data reduction systems may be used to calculate Gamma and the corresponding EC50 or ICSO values.
Thus, the desired loading for a fracturing fluid is determined and the viscosifier diluted to that loading in water and subjected to standardized Microtox™ testing.

Row | Compound | Pass/Fail | EC50 Result (%)
1 | O=CO [0.002 wt % formic acid, formic acid] | Pass (>75% EC50 result is required for pass) | >91
2 | [Cl-].[K+] [4 wt % KCl water, KCl] |  | >91
3 | C[Si]1(C)O[Si](C)(C)O[Si](C)(C)O[Si](C)(C)O1 [octamethylcyclotetrasiloxane] | Pass (>75% EC50 result is required for pass) | 82
4 | hemicellulase enzyme [hemicellulase enzyme (0.02 wt %)] |  | >91
